Results on one molecule are retold here after patent publication USRE39125E1, “Swallowing-assistive drink” (Ryukakusan Co. LTD, priority 2000, dated 2006).

The assay can be described thus: Fluoroscopic video-radiography of taking a barium-filled No. 2 capsule, mouth to stomach. The assay is classed as in vivo. The note with it: patient with difficulty in swallowing; barium-filled No. 2 capsule with about 20 ml of drink. The method, then: First, the purpose of this test was explained to a patient (the person) who had difficulty in swallowing when taking medicines with water, and their consent was acquired.
Next, barium powder was filled up in a No. 2 capsule and the capsule was used as a placebo. The placebo was taken by the patient with about 20 ml of the swallowing-assistive drink of the present invention, while fluoroscopic video-radiographs of the conditions of taking this medicine were taken by scanning from the mouth to the stomach of the patient. The image information obtained was put into a personal computer and the time-course changes were analyzed as still image data of two sheets a second.

For `O` [water], the “time to move from the mouth to the stomach” value is “about 18 sec”.
